Measurements published in US20050130989A1, “N-arylheteroaromatic products compositions containing them and use thereof” (Aventis Pharma S. A., priority 2003, published 2005).

Assays:
tubulin = target: T1, tubulin (Sus scrofa, UniProt P02550+P02554); assay: Evaluation of the inhibition of tubulin polymerization (turbidimetry); type: biochemical, pig; details: tubulin 10 μm (1 mg/ml), 37° C., turbidity at 350 nm; concentration that inhibits the rate of polymerization by 50%; read-out: Inhibition of tubulin polymerization IC 50 (μm)
T1 construct: Tubulin is purified from pig brain according to published methods; from tissue; host or cells: pig brain
In short: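 Pig brain tubulin (>95% pure), 10 μm in MES pH 6.8/30% glycerol buffer plus 1 mM GTP and 6 mM MgCl2, with compound at 0.5–10 μm added before polymerization. Polymerization triggered by shift from 6° C to 37° C, followed by turbidity at 350 nm; IC50 is 50% inhibition of polymerization rate.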

HCT116 cells = assay: Inhibition of proliferation of the human colon tumor line HCT116 ([14C]-thymidine incorporation); type: cell-based; details: Homo sapiens, HCT-116, 48 h, 48 hours at 37° C., read-out: Inhibition of HCT116 proliferation IC 50 (μm)
In short: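 HCT116 cells (5000/well) in DMEM with 10% fetal calf serum incubated 48 h at 37° C with [14C]-thymidine (0.1 μCi/well) and compound up to 10 μm (DMSO ≤0.5%). Incorporated radioactivity counted; IC50 is concentration cutting radioactivity by 50% versus untreated control.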

[1] = system: HDMEC cells (Human Dermal Microvascular Endothelial Cells); assay: Detachment of endothelial cells (test for determining the inhibition of vascularization); type: cell-based; details: two hours of treatment, calcein labeling, relative to untreated control
Source text: A test for determining the detachment of the endothelial cells was developed in order to select the products with regard to their “in vitro” activity. This test for determining the detachment of endothelial cells is characterized in that the endothelial cells, inoculated into plates whose bottom is covered with a binder preferably chosen from gelatin, fibronectin and vitronectin, after culturing, are supplemented with a medium containing the test compound, and the cells are then labeled with a fluorescent substance, the, cells which have become detached are removed by washing and the fluorescence of the remaining cells is counted in a fluorimeter.
This test consists in measuring the detachment of endothelial cells cultured on substrata based on a binder preferably chosen from fibronectin, vitronectin and gelatin. […] The fluorescence of the remaining cells is counted in a fluorimeter. […]
The evaluation of the detachment of the endothelial cells in vitro is determined in the following manner. […] The fluorescence of the cells that remain attached to the substratum of the well is counted using a fluorimeter, Spectrafluor Plus (Tecan excitation 485 nm, and emission 535 nm). The data are the mean of six different samples and are expressed as the percentage of the control (untreated cells). […]

T1 sequence (P02550 whole entry): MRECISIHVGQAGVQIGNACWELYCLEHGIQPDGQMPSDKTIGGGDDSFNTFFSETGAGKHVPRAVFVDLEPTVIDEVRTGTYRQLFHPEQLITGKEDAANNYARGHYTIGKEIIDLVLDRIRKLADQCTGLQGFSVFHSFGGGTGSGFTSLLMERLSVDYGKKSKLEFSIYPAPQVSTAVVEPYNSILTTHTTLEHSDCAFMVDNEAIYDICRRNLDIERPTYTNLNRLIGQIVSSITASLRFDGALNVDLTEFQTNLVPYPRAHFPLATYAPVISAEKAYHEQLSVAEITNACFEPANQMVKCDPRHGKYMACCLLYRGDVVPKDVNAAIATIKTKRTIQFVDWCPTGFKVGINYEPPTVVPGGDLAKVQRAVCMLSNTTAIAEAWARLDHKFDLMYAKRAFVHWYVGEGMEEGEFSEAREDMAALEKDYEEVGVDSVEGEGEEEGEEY
T1 sequence (P02554 whole entry): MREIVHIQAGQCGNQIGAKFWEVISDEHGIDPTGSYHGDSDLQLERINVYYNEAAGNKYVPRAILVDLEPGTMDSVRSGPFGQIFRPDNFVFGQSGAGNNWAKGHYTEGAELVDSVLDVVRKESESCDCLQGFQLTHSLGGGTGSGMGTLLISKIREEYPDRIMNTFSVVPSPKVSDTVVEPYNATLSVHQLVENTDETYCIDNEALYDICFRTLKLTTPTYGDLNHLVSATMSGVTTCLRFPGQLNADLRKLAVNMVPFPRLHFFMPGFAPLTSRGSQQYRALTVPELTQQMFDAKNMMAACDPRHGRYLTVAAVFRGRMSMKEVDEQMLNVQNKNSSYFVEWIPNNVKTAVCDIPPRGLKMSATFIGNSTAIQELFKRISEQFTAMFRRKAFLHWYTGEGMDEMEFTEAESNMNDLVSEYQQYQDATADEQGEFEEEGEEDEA

Row | IC50 (tubulin) | IC50 (HCT116 cells) | melting point | Compound | Percentage detachment of HDMEC at 1 μm [1]
1 | 600 nM | 160 nM | – | Cc1cc(C(=O)N2CCN(c3ccc(C)c(C)c3)CC2)n(-c2ccccc2)n1 [Example 2, [4-(3,4-Dimethylphenyl)piperazin-1-yl](5-methyl-2-phenyl-2H-pyrazol-3-yl)methanone] | 16%
2 | 2300 nM | 403 nM | 160 °C | O=C(c1cc(C(F)(F)F)nn1-c1ccccc1)N1CCN(c2cccc(Cl)c2)CC1 [Example E118, [4-(3-Chlorophenyl)piperazin-1-yl](2-phenyl-5-trifluoromethyl-2H-pyrazol-3-yl)-methanone] | –
3 | 1000 nM | 12 nM | 107 °C | Cc1cc(C(=O)N2CCN(c3cccc(OC(F)(F)F)c3)CC2)n(-c2ccccc2)n1 [Example E11, [4-(3-Trifluoromethyloxyphenyl)piperazin-1-yl](5-methyl-2-phenyl-2H-pyrazol-3-yl)methanone] | –
4 | 3000 nM | 53.1 nM | 158 °C | Cc1cc(C(=O)N2CCN(c3cccc(N)c3)CC2)n(-c2ccccc2)n1 [Example E9, [4-(3-Aminophenyl)piperazin-1-yl](5-methyl-2-phenyl-2H-pyrazol-3-yl)methanone] | –
5 | 2070 nM | 11.3 nM | 180 °C | CNC(=O)c1cccc(N2CCN(C(=O)c3cc(C)nn3-c3ccccc3)CC2)c1 [Example E116, N-Methyl-3-[4-(5-methyl-2-phenyl-2H-pyrazole-3-carbonyl)piperazin-1-yl]-benzamide] | –
6 | 2300 nM | 3.1 nM | 128 °C | Cc1cc(C(=O)N2CCN(c3ccc4c(c3)OCO4)CC2)n(-c2ccccc2)n1 [Example E12, [4-(1,3-Benzodioxol-5-yl)piperazin-1-yl](5-methyl-2-phenyl-2H-pyrazol-3-yl)-methanone] | –
7 | 7900 nM | 28.4 nM | 84 °C | COc1cc(OC)cc(N2CCN(C(=O)c3cc(C(F)(F)F)nn3-c3ccccc3)CC2)c1 [Example E117, [4-(3,5-Dimethoxyphenyl)piperazin-1-yl](2-phenyl-5-trifluoromethyl-2H-pyrazol-3-yl)methanone] | –
8 | 1000 nM | 41.1 nM | 132 °C | Cc1cc(C(=O)N2CCN(c3cccnc3)CC2)n(-c2cccc(F)c2)n1 [Example E58, [2-(3-Fluorophenyl)-5-methyl-2H-pyrazol-3-yl](4-pyrid-3-ylpiperazin-1-yl)methanone] | –
9 | 1410 nM | 10.2 nM | 124 °C | Cc1cc(C(=O)N2CCN(c3cccc(Cl)c3)CC2)n(-c2cccnc2)n1 [Example E52, [4-(3-Chlorophenyl)piperazin-1-yl][5-methyl-2-(pyrid-3-yl)-2H-pyrazol-3-yl]methanone] | –
10 | 320 nM | 10 nM | 186 °C | Cc1cc(C(=O)N2CCN(c3cccc(C(N)=O)c3)CC2)n(-c2ccccc2)n1 [Example E23, 3-[4-(5-Methyl-2-phenyl-2H-pyrazole-3-carbonyl)piperazin-1-yl]benzamide] | –
11 | 3000 nM | 58.8 nM | 68 °C | Cc1cc(C(=O)N2CC=C(c3ccccc3)CC2)n(-c2ccccc2)n1 [Example 4, (4-Phenyl-1,2,3,6-tetrahydropyridin-1-yl)(5-methyl-2-phenyl-2H-pyrazol-3-yl)-methanone] | –
12 | 1200 nM | 10.3 nM | 160 °C | NC(=O)c1cccc(N2CCN(C(=O)c3cc(C(F)(F)F)nn3-c3ccccc3)CC2)c1 [Example E119, 3-[4-(2-Phenyl-5-trifluoromethyl-2H-pyrazole-3-carbonyl)piperazin-1-yl]benzamide] | –
13 | 600 nM | 2.2 nM | 109 °C | Cc1cc(C)cc(N2CCN(C(=O)c3cc(C)nn3-c3ccccc3)CC2)c1 [Example E63, [4-(3,5-Dimethylphenyl)piperazin-1-yl](5-methyl-2-phenyl-2H-pyrazol-3-yl)methanone] | –
14 | 4500 nM | 89.4 nM | 166 °C | Cc1cc(C(=O)N2CCN(c3cncc4ccccc34)CC2)n(-c2ccccc2)n1 [Example E41] | –
15 | 620 nM | 11.1 nM | 60 °C | COc1cc(OC)cc(N2CCN(C(=O)c3cc(C)nn3-c3cccnc3)CC2)c1 [Example E53, [4-(3,5-Dimethoxyphenyl)piperazin-1-yl][5-methyl-2-(pyrid-3-yl)-2H-pyrazol-3-yl]methanone] | –
16 | 600 nM | 2 nM | – | Cc1cc(C(=O)N2CCN(c3cccc(Cl)c3)CC2)n(-c2ccccc2)n1 [Example 1, [4-(3-Chlorophenyl)piperazin-1-yl](5-methyl-2-phenyl-2H-pyrazol-3-yl)methanone] | 22%
